These results are taken from paper PMC7418971 (PLoS Pathogens, 2020).

The term IC50 denotes the concentration needed to halve the response being measured. For orientation: EC50 means the concentration that produces a half-maximal response.

In test [1] the test system is A/England/195/2009 (E195) influenza A virus. Put plainly: microbe, parasite or virus in culture. The test is classed as cell-based. The settings on record: for IC50: read-out: Virus culture IC50.
The test system of test [2] is Eng195 M2-N31 TM/CD peptides. Format: biochemical.
A further test relates to Eng195 in MDCK culture. The test is classed as cell-based, influenza A virus.
For a further test, the system named is H1N1 WSN virus. The settings on record: read-out: EC50 in antiviral plaque assay; cited from earlier work.
The test system of test [3] is M2-N31 and M2-S31 CD peptides. Format: biochemical, Influenza A/England/195/2009 (H1N1).

SMILES strings stand for the structures. Like-named read-outs stand apart in the source and are kept apart here.

Turning to `CN1CCN(C(=O)c2ccc3ccccc3c2)CC1` [B], the “antiviral effect versus Eng195 in culture” value in test [1] is “neither B nor K exhibited antiviral effects”.

Take `Cc1c2ccccc2n2cc(-c3ccccc3)nc(C(C)C)c12` [DL7]: in test [1], the “Virus culture Fold Titre Reduction (80 µM)” value is listed as 100x. Besides, the concentration for half-maximal inhibition (IC50) in test [1] (Influenza A virus, MDCK) was found to be 1480 nM. The “TM/CD peptide preference in titration” value in test [2] is recorded as “preference for CD peptides but with activity versus TM at higher concentrations”. For the same molecule, in the test with Eng195 in MDCK culture, the “combination effect with L1.1” value was “antagonism” and the “combination effect with M2WJ332” value was “antagonism”.

With `Cc1ccc2nc(Oc3ccccc3)ccc2c1` [DP9], in test [1], the “Virus culture Fold Titre Reduction (80 µM)” value is reported as 100x. The IC50 is 25000 to 50000 nM in test [1] (Influenza A virus, MDCK) and over 25000 nM in test [1]. In addition, the “TM/CD peptide preference in titration” value in test [2] is “preferential inhibition of CD peptides”. For the same molecule, in the test on Eng195 in MDCK culture, the “combination effect with M2WJ332” value is recorded as “synergistic”.

Consider `c1cc2nc(C34CC5CC(CC(C5)C3)C4)[nH]c2cn1` [D], for which the “antiviral effect versus Eng195 in culture” value in test [1] was “antiviral effects”.

Consider `Cc1ncc(C23CC4CC(CC(C4)C2)C3)[nH]1` [H], for which the “antiviral effect versus Eng195 in culture” value in test [1] was “antiviral effects”.

For the molecule `OCCNC12CC3CC(CC(C3)C1)C2` [J], the “antiviral effect versus Eng195 in culture” value in test [1] is “antiviral effects”.

Regarding `O=C(Nc1nnc[nH]1)c1cc2ccccc2o1` [K], the “antiviral effect versus Eng195 in culture” value in test [1] was “neither B nor K exhibited antiviral effects”.

For the molecule `COc1ccccc1NC(=S)NC(=O)c1cc2ccccc2cc1OC` [L1.1], in test [1], the “reduction in virus titre” value was about 3 log10 and the “Virus culture Fold Titre Reduction (80 µM)” value is on record as 1000x. In addition, in test [1] (Influenza A virus, MDCK), the IC50 came to 1330 nM. Also, the “TM/CD peptide preference in titration” value in test [2] is given as “equivalent activity versus both TM/CD”. Also, in the test with Eng195 in MDCK culture, the “combination effect with M2WJ332” value is reported as “synergistic” and the “combination effect with Zanamivir” value is “synergistic”.

`c1csc(-c2cc(CNC34CC5CC(CC(C5)C3)C4)no2)c1` [M2WJ332, (3S,5S,7S)-N-{[5-(thiophen-2-yl)-1,2-oxazol-3-yl]methyl}tricycle[3.3.1.1~3,7~]decan-1-aminium, reference compound]: in test [1], the “reduction in virus titre” value was 1–2 log10, the “Virus culture Fold Titre Reduction (80 µM)” value was determined as 100x and the IC50 was 1180 nM. Also, the IC50 in test [1] (Influenza A virus, MDCK) is 1180 nM. For the same molecule, the EC50 in the test on H1N1 WSN virus was 153 nM.

Turning to `CCCCCCCCCN1C[C@H](O)[C@@H](O)[C@H](O)[C@H]1CO` [NNDNJ, reference compound], in test [3], the “effect on M2 oligomerisation” value was “disrupted oligomerisation”. In test [1], the “antiviral effect versus Eng195 in culture” value is reported as “antiviral effects”.
